Reference: US8846947B2, “Benzimidazoles and related analogs as sirtuin modulators” (GlaxoSmithKline LLC, priority 2008, dated 2014)
Like-named read-outs stand apart in the source and are kept apart here.

Target: T1, SIRT1 (Homo sapiens, UniProt Q96EB6)
T1 sequence (Q96EB6 1-747): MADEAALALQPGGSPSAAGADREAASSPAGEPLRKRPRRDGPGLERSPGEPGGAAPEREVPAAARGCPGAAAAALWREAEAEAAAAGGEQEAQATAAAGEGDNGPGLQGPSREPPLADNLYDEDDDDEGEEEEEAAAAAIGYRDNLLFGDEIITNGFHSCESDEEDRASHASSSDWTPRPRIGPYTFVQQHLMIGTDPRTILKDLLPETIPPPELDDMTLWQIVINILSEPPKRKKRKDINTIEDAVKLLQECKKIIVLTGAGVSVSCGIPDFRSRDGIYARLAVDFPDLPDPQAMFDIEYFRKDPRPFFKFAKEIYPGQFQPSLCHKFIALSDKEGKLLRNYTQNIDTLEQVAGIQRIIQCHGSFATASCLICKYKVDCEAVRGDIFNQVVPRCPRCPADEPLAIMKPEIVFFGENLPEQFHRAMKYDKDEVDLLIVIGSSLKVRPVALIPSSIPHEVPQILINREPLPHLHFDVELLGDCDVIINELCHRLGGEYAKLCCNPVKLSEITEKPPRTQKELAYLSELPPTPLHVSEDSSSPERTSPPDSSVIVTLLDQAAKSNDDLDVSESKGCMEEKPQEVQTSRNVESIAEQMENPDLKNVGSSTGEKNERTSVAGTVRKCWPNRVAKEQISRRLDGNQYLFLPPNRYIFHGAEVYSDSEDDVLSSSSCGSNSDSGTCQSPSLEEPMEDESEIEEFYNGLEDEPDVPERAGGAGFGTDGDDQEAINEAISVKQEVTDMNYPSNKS
Assay: Mass spectrometry based SIRT1 deacetylase activation assay (acetylated p53-derived peptide substrate)
Assay type: biochemical

[1] = 0.5 μM peptide substrate, 120 μM βNAD+, 10 nM SIRT1, 25 min at 25° C.
[2] = 0.5 μM peptide substrate, 120 μM βNAD+, 10 nM SIRT1, 25 min at 25° C., read-out: EC1.5
[3] = 0.5 μM peptide substrate, 120 μM βNAD+, 10 nM SIRT1, 25 minutes at 25° C.

Structure (SMILES) | EC1.5 [3] | Fold Act. (percent maximum fold activation) [3] | EC1.5 | Fold Act. (percent maximum fold activation) | further results
O=C(Nc1nccs1)c1cccc2[nH]c(-c3ccc(OC[C@H](O)CO)cc3C(F)F)nc12 [Compound 556, (R)-2-(2-(difluoromethyl)-4-(2,3-dihydroxypropoxy)phenyl)-N-(thiazol-2-yl)-1H-benzo[d]imidazole-4-carboxamide] | – | – | – | – | Fold Act. (percent maximum fold activation) [1]: A (Fold activation >200%); EC1.5 [2]: < 1000 nM
Cc1cc(NC(=O)c2cccc3[nH]c(-c4ccc(Cl)cc4C(F)(F)F)nc23)no1 [Compound 452] | – | – | – | – | Fold Act. (percent maximum fold activation) [1]: A (Fold activation >200%); EC1.5 [2]: < 1000 nM
Cn1nc(-c2ccccc2)cc1-c1nc2c(C(=O)Nc3nccs3)cccc2[nH]1 [Compound 253] | – | – | A (EC1.5<1.0 uM) | A (Fold activation >200%) | –
CN1CCOc2cc(-c3nc4c(C(=O)Nc5nccs5)cccc4[nH]3)cnc21 [Compound 371] | – | – | A (EC1.5<1.0 uM) | A (Fold activation >200%) | –
O=C(Nc1nccs1)c1cccc2[nH]c(-c3c(F)cccc3Cl)nc12 [Compound 266] | – | – | B (EC1.5 1-25 uM) | A (Fold activation >200%) | –
O=C(Nc1cccnc1)c1cccc2[nH]c(-c3cccc(-c4nnn[nH]4)c3)nc12 [Compound 362] | – | – | A (EC1.5<1.0 uM) | A (Fold activation >200%) | –
O=C(Nc1nncs1)c1cccc2[nH]c(-c3cccc(C(F)(F)F)c3)nc12 [Compound 239] | – | – | C (EC1.5 >25 uM) | B (Fold Activation <200%) | –
O=C(Nc1cccc(CN2CCCC2)n1)c1cccc2[nH]c(-c3ccccc3C(F)(F)F)nc12 [Compound 620, N-(6-(pyrrolidin-1-ylmethyl)pyridin-2-yl)-2-(2-(trifluoromethyl)phenyl)-1H-benzo[d]imidazole-4-carboxamide] | A (EC1.5<1.0 uM) | A (Fold activation >200%) | – | – | –
Cc1cc(C)nc(NC(=O)c2cccc3[nH]c(-c4cccc(N5CCOCC5)c4)nc23)c1 [Compound 398] | – | – | – | – | Fold Act. (percent maximum fold activation) [1]: A (Fold activation >200%); EC1.5 [2]: < 1000 nM
O=C(Nc1cccnc1)c1cccc2[nH]c(-c3cc(N4CCOCC4)ccc3C(F)(F)F)nc12 [Compound 450, 2-(5-morpholino-2-(trifluoromethyl)phenyl)-N-(pyridin-3-yl)-1H-benzo[d]imidazole-4-carboxamide] | – | – | – | – | Fold Act. (percent maximum fold activation) [1]: A (Fold activation >200%); EC1.5 [2]: < 1000 nM
O=C(NC1CCOC1=O)c1cccc2[nH]c(-c3cccc(N4CCOCC4)c3)nc12 (stereo not drawn) [Compound 397] | – | – | B (EC1.5 1-25 uM) | A (Fold activation >200%) | –
C[C@@H]1CN(c2ccc(-c3nc4c(C(=O)Nc5nccs5)cccc4[nH]3)c(C(F)(F)F)c2)C[C@H](C)O1 [Compound 603] | A (EC1.5<1.0 uM) | A (Fold activation >200%) | – | – | –
O=C(Nc1nccs1)c1cccc2[nH]c(-c3cccc(OC(F)(F)F)c3)nc12 [Compound 204] | – | – | A (EC1.5<1.0 uM) | A (Fold activation >200%) | –
O=C(Nc1nccs1)c1cccc2[nH]c(-c3ccc(F)cc3C(F)(F)F)nc12 [Compound 263] | – | – | A (EC1.5<1.0 uM) | A (Fold activation >200%) | –
Cc1cnc(NC(=O)c2cccc3[nH]c(-c4cccc(C(F)(F)F)c4)nc23)s1 [Compound 260] | – | – | B (EC1.5 1-25 uM) | B (Fold Activation <200%) | –
O=C(Nc1cccnc1)c1cccc2[nH]c(-c3ccnc(N4CCCC4)c3)nc12 [Compound 568] | – | – | – | – | Fold Act. (percent maximum fold activation) [1]: B (Fold Activation <200%); EC1.5 [2]: > 25000 nM
Cc1cnc(NC(=O)c2cccc3[nH]c(-c4cnc5c(c4)OCCN5C)nc23)s1 [Compound 440] | – | – | – | – | Fold Act. (percent maximum fold activation) [1]: A (Fold activation >200%); EC1.5 [2]: < 1000 nM
Cc1cc(C)nc(NC(=O)c2cccc3[nH]c(-c4cnc5c(c4)OCCN5C)nc23)c1 [Compound 461] | – | – | – | – | Fold Act. (percent maximum fold activation) [1]: A (Fold activation >200%); EC1.5 [2]: < 1000 nM
CS(=O)(=O)c1ccccc1-c1nc2c(C(=O)Nc3nccs3)cccc2[nH]1 [Compound 517] | – | – | – | – | Fold Act. (percent maximum fold activation) [1]: A (Fold activation >200%); EC1.5 [2]: 1000 to 25000 nM
O=C(Nc1cccnc1)c1cccc2[nH]c(-c3cccc(N4CCCCC4)n3)nc12 [Compound 390] | – | – | B (EC1.5 1-25 uM) | B (Fold Activation <200%) | –
O=C(Nc1nccs1)c1cccc2[nH]c(-c3ccccc3CN3CCOCC3)nc12 [Compound 267] | – | – | B (EC1.5 1-25 uM) | A (Fold activation >200%) | –
O=C(Nc1nccs1)c1cccc2[nH]c(-c3ccc(N4CC[C@H](F)C4)cc3C(F)(F)F)nc12 [Compound 606] | A (EC1.5<1.0 uM) | A (Fold activation >200%) | – | – | –
O=C(Nc1ccccn1)c1cccc2[nH]c(-c3cc(F)ccc3C(F)(F)F)nc12 [Compound 323] | – | – | A (EC1.5<1.0 uM) | A (Fold activation >200%) | –
O=C(Nc1ccccn1)c1cccc2[nH]c(-c3ccc(N4CC[C@@H](F)C4)cc3C(F)(F)F)nc12 [Compound 609] | B (EC1.5 1-25 uM) | A (Fold activation >200%) | – | – | –
O=C(Nc1ccccn1)c1cccc2[nH]c(-c3cccc(C(F)(F)F)c3)nc12 [Compound 233] | – | – | B (EC1.5 1-25 uM) | A (Fold activation >200%) | –
O=C(Nc1cccnc1)c1cc(N2CCOCC2)cc2[nH]c(-c3ccc(F)cc3C(F)(F)F)nc12 [Compound 691] | A (EC1.5<1.0 uM) | A (Fold activation >200%) | – | – | –

Now from value to compound, other results behind:

EC1.5 [3] | Fold Act. (percent maximum fold activation) [3] | EC1.5 | Fold Act. (percent maximum fold activation) | Structure (SMILES) | further results
A (EC1.5<1.0 uM) | A (Fold activation >200%) | – | – | CC1(C)CN(c2ccc(-c3nc4c(C(=O)Nc5ccccn5)cccc4[nH]3)c(C(F)(F)F)c2)CCO1 [Compound 707] | –
A (EC1.5<1.0 uM) | A (Fold activation >200%) | – | – | O=C(Nc1nccs1)c1cncc2[nH]c(-c3ccc(N4CCCC4)cc3C(F)F)nc12 [Compound 799] | –
A (EC1.5<1.0 uM) | A (Fold activation >200%) | – | – | O=C(Nc1ccccn1)c1cc(F)cc2[nH]c(-c3ccc(OC[C@@H](O)CO)cc3C(F)F)nc12 [Compound 840] | –
A (EC1.5<1.0 uM) | A (Fold activation >200%) | – | – | O=C(Nc1ccccn1)c1cccc2[nH]c(-c3cc(CN4CCCC4)ccc3C(F)(F)F)nc12 [Compound 872, N-(pyridin-2-yl)-2-(5-(pyrrolidin-1-ylmethyl)-2-(trifluoromethyl)phenyl)-1H-benzo[d]imidazole-4-carboxamide] | –
A (EC1.5<1.0 uM) | A (Fold activation >200%) | – | – | O=C(Nc1ccccn1)c1cncc2nc(-c3ccc(OC[C@H](O)CO)cc3C(F)F)[nH]c12 [Compound 810] | –
A (EC1.5<1.0 uM) | A (Fold activation >200%) | – | – | O=C(Nc1cccc(OC[C@@H](O)CO)c1)c1cncc2[nH]c(-c3ccc(Cl)cc3C(F)F)nc12 [Compound 716] | –
A (EC1.5<1.0 uM) | A (Fold activation >200%) | – | – | O=C(Nc1cccnc1)c1cncc2[nH]c(-c3ccc(N4CCOCC4)cc3C(F)F)nc12 [Compound 807] | –
A (EC1.5<1.0 uM) | A (Fold activation >200%) | – | – | O=C(Nc1nccs1)c1cc(F)cc2nc(-c3ccc(F)cc3C(F)F)[nH]c12 [Compound 824] | –
A (EC1.5<1.0 uM) | A (Fold activation >200%) | – | – | O=C(Nc1cccc(OC[C@H](O)CO)c1)c1cccc2[nH]c(-c3cc(F)cc(F)c3)nc12 [Compound 786] | –
B (EC1.5 1-25 uM) | A (Fold activation >200%) | – | – | O=C(Nc1ccccn1)c1cccc2nc(-c3ccc(N4CCCC4)cc3C(F)F)[nH]c12 [Compound 766] | –
A (EC1.5<1.0 uM) | A (Fold activation >200%) | – | – | O=C(Nc1ccccn1)c1cccc2[nH]c(-c3ccc(CN4CCCC4)cc3C(F)(F)F)nc12 [Compound 838, N-(pyridin-2-yl)-2-(4-(pyrrolidin-1-ylmethyl)-2-(trifluoromethyl)phenyl)-1H-benzo[d]imidazole-4-carboxamide] | –
A (EC1.5<1.0 uM) | A (Fold activation >200%) | – | – | O=C(Nc1nccs1)c1cc(N2CCOCC2)cc2[nH]c(-c3ccc(F)cc3C(F)F)nc12 [Compound 749] | –
A (EC1.5<1.0 uM) | A (Fold activation >200%) | – | – | Cc1cnc(NC(=O)c2cc(F)cc3nc(-c4cc(F)ccc4C(F)F)[nH]c23)s1 [Compound 836] | –
